{"source": "patent US10004718B2", "about": "“Erythropoietin expression promoter” (TOHOKU UNIVERSITY, priority 2012, dated 2018)", "key": {"[1]": {"tested_on": "MCA (middle cerebral artery) occlusion mouse models", "test": "Cerebral ischemic injury, MCA occlusion mouse model (TTC staining)", "assay_type": "in vivo", "details": "40 mg/kg intraperitoneal 4 hours before ischemia, 24 hours after reperfusion, vs DMSO, n=1", "experimental": "Two types of compounds (compounds #4 and 35) (40 mg/kg of mouse body weight) were each intraperitoneally administered to a mouse 4 hours before ischemia (n=1). A vehicle (DMSO) was administered to a control (n=1). Anesthesia was induced in each mouse with 4% halothane and oxygen and maintained by the intraperitoneal administration of ketamine (40 mg/kg) and xylazine (4 mg/kg) at 30-minute intervals. After the induction of systemic anesthesia, bifurcation of the common carotid artery was exposed under a microscope. A 6-0 nylon thread having a silicon-coated tip was inserted from the internal carotid artery toward the central side so that its tip reached the anterior communicating artery. The common carotid artery was further ligated to block blood flow into the middle cerebral artery. After the ischemic burden for 30 minutes, the nylon thread was removed so that the ligated common carotid artery was released to induce reperfusion.\n24 hours after the reperfusion, each mouse was cervically dislocated and then decapitated to excise the brain. Five coronal sections of the cerebrum having a thickness of 2 mm were prepared from the boundary between the cerebrum and the cerebellum. The coronal sections of the cerebrum were stained with TCC through a reaction at 37° C. for 20 minutes with a TTC solution diluted to 1.5% with PBS. […]"}, "ISN-1e cells": {"tested_on": "ISN-1e cells", "test": "ATP production in islet of Langerhans-derived ISN-1e cells (insulin secretion)", "assay_type": "cell-based, rat", "details": "compound 0.03 to 10 μM, 3 hours", "experimental": "The ISN-1e cells were seeded at 2×10^5 cells/well to a 96-well cell culture plate and then cultured overnight. Compound #4 was mixed at each concentration (10, 3, 1, 0.3, 0.1, and 0.03 μM) into RPMI11640 common medium 2. After further culture for 3 hours, the concentration of ATP produced in the medium was measured using ATP Assay Reagent “of Cells” (manufactured by Toyo B-Net Co., Ltd.) and GloMa 96 Microplate Luminometer (manufactured by Promega K.K.). ISN-1e cells cultured in the absence of the compound (DMSO added [1%]) (“control” of FIG. 16) and ISN-1e cells cultured in the presence of an HIF activator (FG-4592 [10, 3, 1, 0.3, and 0.1 μM]) were used as controls."}, "[2]": {"test": "Plasma concentration in mice after tail vein administration (LC/MS/MS)", "assay_type": "in vivo, mouse", "experimental": "Compound #4 was administered alone to the tail veins of 3 mice (C57BL/6N 8 W, male, 21-25 g). 30 minutes, 1 hour, and 6 hours after the administration, each mouse was cervically dislocated, and 500 μl of blood was collected from the heart. Then, an anticoagulant (10 μl of heparin) was added thereto, and the resulting blood was centrifuged (12000 rpm×20 min, 4° C.) to isolate plasma. DMSO (57 μl) was administered alone to the tail veins of mice, which were in turn used as controls.\nThe plasma concentration of the compound #4 was quantified using LC/MS/MS constituted by TSQ Quantum Ultra (manufactured by Thermo Fisher Scientific Inc.) and NANOSPACE SI-2 (manufactured by Shiseido Co., Ltd.). Conditions for the selected reaction monitoring (SRM) method of the compound #4 or 2-methyl-5-([2-naphthylamino]carbonyl)-3-thienyl)acetic acid used as an internal standard (hereinafter, referred to as an “internal standard compound”) are “m/z 311.1>116.0 (collision energy, CE=24)” and “m/z 324.1>280.0 (CE=14)”. “Xbridge C18 (150 mm×2.1 mm i.d., 3.5 μm particle size)” was selected as an analytical column. […] The compound #4 and the internal standard compound were detected 8.51 and 9.00 minutes, respectively (upper column of FIG. 10). […] The sample (1 μl) was introduced through a filter to LC/MS/MS to quantify the plasma concentration (μg/ml) of the compound #4 (lower column of FIG. 10)."}, "[3]": {"test": "Erythrocyte production in mice (Hct value and hemoglobin, i-STAT)", "assay_type": "in vivo, mouse", "details": "1 mg/200 μl of CMC oral, 7 consecutive days, n=3, mean±standard deviation", "experimental": "Compound #4 (1 mg) was mixed with 200 μl of CMC (carboxymethylcellulose). This compound #4 mixed solution (1 mg/200 μl of CMC) was orally administered to each mouse (C57BL/6N 8 W, male, 21-25 g) between 15:00 to 18:00 every day using a sonde. This administration was carried out for 7 consecutive days (n=3). Mice orally given CMC were used as controls (n=3).\n24 hours after the final administration, each mouse was cervically dislocated, and 500 μl of blood was collected from the heart. Then, an anticoagulant (10 μl of heparin) was added thereto, and the Hct value and the hemoglobin concentration were measured using i-STAT (manufactured by Fuso Pharmaceutical Industries, Ltd.)."}, "[4]": {"tested_on": "human kidney-derived cell line HK-2", "test": "Renal protective effect: cisplatin cytotoxicity to HK-2 cells", "assay_type": "cell-based", "details": "for HK-2 cell death by cisplatin: cisplatin 30 μM", "experimental": "The HK-2 cells were seeded at 5×10^3 cells/well to a 96-well cell culture plate and then cultured overnight. Cisplatin and compound #4 were mixed at 30 μM and each concentration (30, 10, 3, 1, 0.3, 0.1, 0.03, 0.01, and 0.003 μM), respectively, into DMEM/F12 common medium. After further culture for 24 hours, conversion to formazan dye by mitochondrial dehydrogenase in live cells was detected by the measurement of absorbance at OD […] using a kit (Cell counting kit-8, manufactured by Dojindo Laboratories) to analyze the ratio of live cells. HK-2 cells cultured in the absence of cisplatin (“Cisplatin-” of FIG. 14) and HK-2 cells cultured in the presence of cisplatin (30 μM) and in the absence of the compound #4 (“Cisplatin+” of FIG. 14) were used as controls.\nThe cells were cultured in advance for 1 hour with the compound #4 of the present invention having a concentration of 3 μM and then analyzed according to the method described in Example 12."}}, "data": [{"smiles": "O=C(CC(C(=O)O)c1c[nH]c2ccccc12)c1ccc(F)cc1", "note": "(stereo not drawn) [compound #4, 4-(4-Fluorophenyl)-2-(1H-indol-3-yl)-4-oxo-butanoic acid]", "values": [{"measurement": "volume of the cerebral infarction site", "setting": "[1]", "result": "decreased"}, {"measurement": "ATP concentration in the ISN-1e cells relative to the control", "setting": "ISN-1e cells", "result": "two or more times relative to the control"}, {"measurement": "time after administration up to which the compound is detected in plasma", "setting": "[2]", "result": "at least 6 hours"}, {"measurement": "detection in plasma", "setting": "[2]; 30 minutes after the administration", "result": "detected at a high level"}, {"measurement": "Hct value", "setting": "[3]", "result": "47.7±0.816", "unit": "% PCV"}, {"measurement": "hemoglobin concentration in the mouse blood", "setting": "[3]", "result": "16.2 ± 0.286", "unit": "g/dL"}, {"measurement": "HK-2 cell death by cisplatin", "setting": "[4]; compound at a concentration around 30 μM", "result": "efficiently suppress cell death"}, {"measurement": "HK-2 cell death by cisplatin", "setting": "[4]; compound at least at a concentration of 1 to 300 μM, 24 hours", "result": "significantly suppressed"}, {"measurement": "HK-2 cell death by cisplatin with preincubation compared with no preincubation", "setting": "[4]; preincubation 1 hour with 3 μM compound", "result": "further suppressed"}]}]}
